Data from patent publication US9409880B2, “Modulators of TLR3/dsRNA complex and uses thereof” (The Regents of the University of Colorado, a body corporate, priority 2011, dated 2016).
“Also recorded” adds a separate entry of the source.

What was measured:
[1] = biological target: T1, TLR3 (Mus musculus, UniProt Q99MB1); experiment: In vitro TLR3 inhibition assay: Poly IC-induced NO production in RAW 264.7 cells; type: cell-based
T1 construct: endogenous in cells; host or cells: RAW 264.7
T1 sequence (Q99MB1 26-905): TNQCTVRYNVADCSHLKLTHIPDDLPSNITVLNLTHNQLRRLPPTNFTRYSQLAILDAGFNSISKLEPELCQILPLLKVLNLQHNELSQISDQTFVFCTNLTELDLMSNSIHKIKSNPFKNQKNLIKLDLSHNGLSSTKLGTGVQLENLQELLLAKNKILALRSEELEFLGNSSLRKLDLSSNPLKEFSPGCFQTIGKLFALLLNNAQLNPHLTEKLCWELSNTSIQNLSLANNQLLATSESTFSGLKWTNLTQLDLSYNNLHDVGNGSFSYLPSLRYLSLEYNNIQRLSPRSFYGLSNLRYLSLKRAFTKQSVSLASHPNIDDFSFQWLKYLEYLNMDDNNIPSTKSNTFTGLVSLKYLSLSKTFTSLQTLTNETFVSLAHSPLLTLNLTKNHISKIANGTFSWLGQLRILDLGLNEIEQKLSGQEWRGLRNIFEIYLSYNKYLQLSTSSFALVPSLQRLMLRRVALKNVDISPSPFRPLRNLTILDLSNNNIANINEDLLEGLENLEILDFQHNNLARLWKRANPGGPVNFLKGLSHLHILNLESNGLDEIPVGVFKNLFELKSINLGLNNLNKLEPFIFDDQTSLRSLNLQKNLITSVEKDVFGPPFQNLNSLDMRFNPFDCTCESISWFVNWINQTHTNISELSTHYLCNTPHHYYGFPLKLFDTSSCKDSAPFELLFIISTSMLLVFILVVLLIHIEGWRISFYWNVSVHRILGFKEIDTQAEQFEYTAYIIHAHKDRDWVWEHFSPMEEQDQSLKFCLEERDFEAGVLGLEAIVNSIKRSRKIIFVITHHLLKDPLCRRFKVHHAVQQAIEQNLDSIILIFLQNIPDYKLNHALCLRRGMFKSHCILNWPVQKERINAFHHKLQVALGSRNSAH
Text: The initial hits (Figure A) were first evaluated using the present inventors' previously established high-throughput cell assay of TLR3 activation. See, for example, ACS Med. Chem. Lett. 2010, 1, 194 and Bioorg. Med. Chem. Lett., 2010, 20, 5411. Poly IC (Polyriboinosinic:polyribocytidylic acid) has been reported to selectively activate TLR3 signaling, resulting in the activation of nitric oxide synthase and the production nitric oxide (NO) in RAW 264.7 macrophage cells. The NO level was monitored as an indicator of Poly IC-induced TLR3 activation to evaluate the drug's inhibitory activity.
RAW 264.7 (Mouse leukaemic monocyte macrophage cell line) cells were grown in RPMI 1640 medium, supplemented with 10% FBS, penicillin (100 U/mL) and streptomycin ([…]). RAW cells were then planted in 96-well plates at 100,000 cells per well and grown for 24 h in the media descried previously at 37° C. in a 5% CO2 humidified incubator. After 24 h, non-adherent cells and media were removed and replaced with fresh RPMI 1640 medium (only RPMI). The adherent macrophages were treated with high molecular weight polyinosine-polycytidylic acid (Poly IC) (10 μg/mL) (Invivogen), an agonist of TLR3, and then added different concentrates of potential inhibitor. Two rows were only treated with Poly IC as an control. Plates were then incubated for an additional 24 h. Following incubation 100 μL of media was removed and added to flat black 96-well microfluor plates (Thermo Scientific, MA, USA). To each well, 10 μL of 2,3-diaminonaphthalene (0.05 mg/mL in 0.62 M aqueous HCl solution) was added and incubated for 15 min in the dark. The reaction was quenched by addition of 5 μL of a 3 M aqueous NaOH solution and the plate was read on Beckman Coulter DTX880 reader (Beckman Coulter, Calif., USA) with excitation at 365 nm and emission at 450 nm. The nitrite (a stable metabolite of nitric oxide) concentration was determined from a nitrite standard curve. The inhibition rate (%) of NO release was determined using the following formula: Inhibition (%)=[Poly IC(OD450)−Compounds (OD450)]/[Poly IC(OD450)−Control (OD450)]×100. The IC50 values for both inhibition and cytotoxicity were determined graphically using software Origin v7.5.

[2] = test system: TNF-α and IL-1β production; experiment: Cytokine-specific ELISA in RAW 264.7 cells; type: cell-based, Mouse; conditions: 27 μM compound
Protocol: A secondary cell assay was used to confirm that compound 4a inhibits the downstream signaling transduction mediated by the formation of the TLR3/dsRNA complex. In addition to TLR3 signaling suppression, the release of the proinflammatory cytokines, TNF-α and IL-1β, were also studied.
RAW cells were planted in 6-well plates at 1,000,000 cells per well with 3 mL of medium (RPMI 1640 medium, supplemented with 10% FBS, penicillin (100 U/mL) and streptomycin ([…])) and grown for 24 h at 37° C. in a 5% CO2 humidified incubator. After 24 h, non-adherent cells and media were removed and replaced with fresh RPMI 1640 medium (3 mL/well). […] In additionally wells, one well was treated with only 4a (27 μM) and the other was treated with nothing. Plates were then incubated for an additional 24 h. […] Approximately 400 μL of supernatant were collected into new tubes, frozen at −80° C. until ready for cytokine measurement. The production of the cytokine interleukin-1β (IL-1β) and TNF-α was quantified with enzyme-linked immunosorbent assays (ELISA) using cytokine-specific capture antibodies, biotinylated monoclonal detection antibodies, and recombinant human cytokine standards according to commercially available ELISA kits from R&D Systems. The cytokine level in each sample was determined in duplicate.

[3] = test system: RANTES; experiment: In vivo poly IC-induced RANTES production; set-up: species or system mice
[4] = test system: XMRV-induced IP-10/CXCL10 production; experiment: XMRV-induced IP-10 mRNA (RT-PCR) in LNCaP cells; type: cell-based, human

SMILES: O=C(N[C@H](Cc1ccccc1)C(=O)O)c1sc2cc(F)ccc2c1Cl [Compound 4a, (R)-2-(3-chloro-6-fluorobenzo[b]thiophene-2-carboxamido)-3-phenylpropanoic acid]
- TLR3 signaling in specificity test ([1]; 27 μM, Poly IC): selectively inhibited TLR3 signaling
- increase in potency compared to T5626448 ([1]; 4a vs T5626448): ~45 fold
- IC50 ([1]; Poly IC-induced TLR3 activation, cell assay): 3.44 ± 0.41 µM
- IL-1β production [2]: inhibits
- TNF-α production [2]: inhibits
- RANTES production with increased pre-treatment doses ([3]; pretreatment before poly IC i.v.): decrease of RANTES in a dose-dependent manner; also recorded: decreasing RANTES production
- RANTES production with increasing poly IC doses ([3]; pretreatment with 27 μg): significant decrease in RANTES production; also recorded: decreased RANTES production
- XMRV-induced IP-10 production ([4]; 50 μM, RT-PCR of IP-10 mRNA): inhibits XMRV-induced IP-10 production
- XMRV-induced IP-10/CXCL10 production ([4]; 10 and 25 μM, RT-PCR): inhibition of XMRV-induced IP-10/CXCL10 production
